Legend:
Type in all cases: cell-based
[1] = system: IL-1β; assay: IL-1β inhibition assay (ELISA/HTRF of culture supernatants); conditions: Homo sapiens, PMA-differentiated THP-1 cells, tested 10 μM to 0.003 μM
Procedure: Human monocyte-like THP-1 cells were grown in RPMI media supplemented with 10% FBS (growth media) at 37° C., 5% CO2. Cell cultures were passaged every three days and maintained at a density of 5×10^5 to 1×10^6 cells per mL.
Compounds were prepared as 10 mM stock solutions in 100% DMSO. […] Each 200× dilution was then diluted 20-fold in growth media (step down dilution) to yield a 10× final assay concentration range. All compounds were tested over a final assay concentration range of 10 μM to 0.003 μM.
The level of IL-10 in supernatants from PMA-differentiated THP-1 cells was determined by ELISA using either the R&D Systems Human IL-1 beta/IL-1F2 Quantikine ELISA or the cisbio HTRF human IL 1 beta kit. Manufacturer's protocols were followed without deviation.
Background values were subtracted and resulting values were converted to percentage of vehicle-treated controls. Data was analyzed via GraphPad Prism 7.0 using a non-linear regression (variable slope (four-parameter)) equation.
Table 2 provides IL-10 ELISA EC50 values for example compounds. A indicates EC50>10 μM; B indicates EC50 between 1 and 10 μM (inclusive); C indicates EC50<1 μM.

[2] = MTT cell viability assay, THP-1 cells; conditions: human, unstimulated THP-1 cells, read-out: THP-1 Cytotoxicity CC50
Procedure: (§1) In order to assess the cytotoxicity of the compounds, an MTT cell viability assay was performed in either unstimulated THP-1 or HepG2 cells as follows. 5×10^4 THP-1 or 5×10^3 HepG2 cells were seeded into each well of a 96-well plate in 90 μL of media. Compounds were added to cells as described for the IL-10 assay and returned to the incubator for an additional 72 hours. Next, 25 μL of MTT solution (5 mg/mL in sterile PBS) was added to each well. Plates were incubated for 3 hours at 37° C., 5% CO2. Next, for THP-1 cells, 100 μl of MTT solubilization solution (40% Dimethylformamide, 2% glacial acetic acid, 16% sodium dodecyl sulfate) was then added to each well and plates were incubated at room temperature in the dark overnight. For HepG2 cells, media was aspirated, 50 μL of DMSO was added and plates were mixed briefly with an orbital plate shaker. Absorbance at 570 nm was measured using a Perkin-Elmer EnVision plate reader.
Absorbance values were converted to percentage of vehicle-treated controls. Data was then analyzed using a non-linear regression (variable slope (four-parameter)) equation in GraphPad Prism 7.0.
Table 2 provides THP-1 cytotoxicity assay CC50 values for example compounds. A indicates CC50>10 μM; B indicates CC50 between 1 and 10 μM (inclusive); C indicates CC50<1 μM. NT, not tested.

[3] = MTT cell viability assay, HepG2 cells; conditions: human, read-out: HepG2 Cytotoxicity CC50
Procedure: as §1
Absorbance values were converted to percentage of vehicle-treated controls. Data was then analyzed using a non-linear regression (variable slope (four-parameter)) equation in GraphPad Prism 7.0. […]

Structure (SMILES) | EC50 [1] [µM] | CC50 at 72 h [2] [µM] | CC50 at 72 h [3] [µM]
CC1(C)[C@@H]2C[C@H]3OB(CCCc4cc(S(=O)(=O)NC(=O)Nc5c6c(cc7c5CCC7)CCC6)ccc4O)O[C@@]3(C)[C@H]1C2 [Example 49, N-((1,2,3,5,6,7-hexahydro-s-indacen-4-yl)carbamoyl)-4-hydroxy-3-(3-((3aS,4S,6S,7aR)-3a,5,5-trimethylhexahydro-4,6-methanobenzo[d][1,3,2]dioxaborol-2-yl)propyl)benzenesulfonamide] | 1 to 10 | > 10 | –
COc1ccc(S(=O)(=O)NC(=O)Nc2c3c(cc4c2CCC4)CCC3)cc1CCCB1O[C@@H]2C[C@@H]3C[C@@H](C3(C)C)[C@]2(C)O1 [Example 50, N-((1,2,3,5,6,7-hexahydro-s-indacen-4-yl)carbamoyl)-4-methoxy-3-(3-((3aS,4S,6S,7aR)-3a,5,5-trimethylhexahydro-4,6-methanobenzo[d][1,3,2]dioxaborol-2-yl)propyl)benzenesulfonamide] | 1 to 10 | > 10 | –
COc1cc(-c2ccc3c(c2NC(=O)NS(=O)(=O)c2ccc4c(c2)COB4O)CCC3)ccn1 [Example 51, 1-hydroxy-N-((5-(2-methoxypyridin-4-yl)-2,3-dihydro-1H-inden-4-yl)carbamoyl)-1,3-dihydrobenzo[c][1,2]oxaborole-5-sulfonamide] | 1 to 10 | > 10 | –
CC(CB1OC(C)(C)C(C)(C)O1)c1coc(S(=O)(=O)NC(=O)Nc2c3c(cc4c2CCC4)CCC3)c1 (stereo not shown) [Example 58, N-((1,2,3,5,6,7-hexahydro-s-indacen-4-yl)carbamoyl)-4-(1-(4,4,5,5-tetramethyl-1,3,2-dioxaborolan-2-yl)propan-2-yl)furan-2-sulfonamide] | < 1 | – | > 10
CC1(C)OB(CCCn2ccc(S(=O)(=O)NC(=O)Nc3c4c(cc5c3CCC5)CCC4)n2)OC1(C)C [Example 59, N-((1,2,3,5,6,7-hexahydro-s-indacen-4-yl)carbamoyl)-1-(3-(4,4,5,5-tetramethyl-1,3,2-dioxaborolan-2-yl)propyl)-1H-pyrazole-3-sulfonamide] | < 1 | > 10 | –
O=C(Nc1c2c(cc3c1CCC3)CCC2)NS(=O)(=O)c1ccn(CCCB(O)O)n1 [Example 63, (3-(3-(N-((1,2,3,5,6,7-hexahydro-s-indacen-4-yl)carbamoyl)sulfamoyl)-1H-pyrazol-1-yl)propyl)boronic acid] | < 1 | – | > 10
CC(CB1OC(C)(C)C(C)(C)O1)Cn1ccc(S(=O)(=O)NC(=O)Nc2c3c(cc4c2CCC4)CCC3)n1 (stereo not shown) [Example 64, N-((1,2,3,5,6,7-hexahydro-s-indacen-4-yl)carbamoyl)-1-(2-methyl-3-(4,4,5,5-tetramethyl-1,3,2-dioxaborolan-2-yl)propyl)-1H-pyrazole-3-sulfonamide] | < 1 | – | > 10
CC(CB(O)O)Cn1ccc(S(=O)(=O)NC(=O)Nc2c3c(cc4c2CCC4)CCC3)n1 (stereo not shown) [Example 65, (3-(3-(N-((1,2,3,5,6,7-hexahydro-s-indacen-4-yl)carbamoyl)sulfamoyl)-1H-pyrazol-1-yl)-2-methylpropyl)boronic acid] | < 1 | – | > 10
CC(C)(Cn1ccc(S(=O)(=O)NC(=O)Nc2c3c(cc4c2CCC4)CCC3)n1)B1OC(C)(C)C(C)(C)O1 [Example 66, N-((1,2,3,5,6,7-hexahydro-s-indacen-4-yl)carbamoyl)-1-(2-methyl-2-(4,4,5,5-tetramethyl-1,3,2-dioxaborolan-2-yl)propyl)-1H-pyrazole-3-sulfonamide] | < 1 | – | > 10
CC1(C)CCc2c1nc1c(c2NC(=O)NS(=O)(=O)c2ccn(CCCB(O)O)n2)CCC1 [Example 67, (3-(3-(N-((3,3-dimethyl-1,2,3,5,6,7-hexahydrodicyclopenta[b,e]pyridin-8-yl)carbamoyl)sulfamoyl)-1H-pyrazol-1-yl)propyl)boronic acid] | < 1 | – | > 10
CC(C)(O)c1coc(S(=O)(=O)NC(=O)Nc2c3c(cc4c2CCC4)CCC3)c1 [MCC-950, reference compound] | < 1 | > 10 | –
